Measured values published in US20260199479A1, “DRUG LINKER AND LINKER-CONJUGATED COMPOUND” (Anti-Microbial Savior BioteQ Co., Ltd., priority 2022, published 2026).
In brackets after ≈: the same amount, converted by molar mass.

What was measured:
Caco-2 = assay: Cytotoxicity screening, PrestoBlue cell viability; format: cell-based; details: Caco-2, colon cancer cells
Procedure: Caco-2, colorectal adenocarcinoma, was obtained from the Bioresource Collection and Research Center ([…]). Cells were cultured in minimal essential Eagle's culture medium (FBS) (Gibco, USA) containing 2 mM L-glutamic acid, 1.5 mg/mL sodium bicarbonate, 0.1 mM non-essential amino acids, 1.0 mM sodium pyruvate (Gibco, USA), 20% fetal bovine serum (Gibco, USA), and 1% antibiotics (1×penicillin, streptomycin and glutamic acid) (Gibco, USA).
(§1) Cell viability was assessed with PrestoBlue assay (Invitrogen, USA). Cells were seeded into 96-well plates and cultured with test compounds according to the manufacturer's protocol. After 48 hours of exposure to test compounds, the culture medium was discarded and rinsed with PBS. […] Absorbance was measured at the experimental wavelength of 570 nm and the normalized wavelength of 600 nm in a SpectraMax iD3 microplate reader. […] Cell viability was expressed as a percentage relative to the control, and calculated using the following formula: cell viability (%)=[(Absorbance of test wells at 570 nm−Absorbance of only culture medium wells at 570 nm−Absorbance of test wells at 600 nm+Absorbance of only culture medium wells at 600 nm)/Absorbance of the control well at 570 nm−Absorbance of only culture medium wells at 570 nm-Absorbance of the control well at 600 nm+Absorbance nm of only culture medium wells at 600 nm)]×100.

BxPC-3 = assay: Cytotoxicity screening, PrestoBlue cell viability; format: cell-based, human; details: BxPC-3, pancreatic cancer cells
Procedure: (§2) BxPC-3, human pancreatic adenocarcinoma cells, were obtained from the Bioresource Collection and Research Center (BCRC, Taiwan, China). Cells were cultured in RPMI 1640 culture medium (Gibco, USA) containing 10% FBS (Gibco, USA) and 1% antibiotics (1×penicillin, streptomycin and glutamic acid) (Gibco, USA).
(§3) Cell viability was assessed with PrestoBlue assay (Invitrogen, USA). Cells were seeded into 96-well plates and cultured with test compounds according to the manufacturer's protocol. After 48 hours of exposure to test compounds, the culture medium was discarded and rinsed with PBS. Then, add 10 μL PrestoBlue reagent containing 90 μL culture medium to the cells and incubate the cell plate at 37° C. in the dark for 120 min. Absorbance was measured at the experimental wavelength of 570 nm and the normalized wavelength of 600 nm in a SpectraMax iD3 microplate reader. […] Cell viability was expressed as a percentage relative to the control, and calculated using the following formula: cell viability (%)=[(Absorbance of test wells at 570 nm−Absorbance of only culture medium wells at 570 nm−Absorbance of test wells at 600 nm+Absorbance of only culture medium wells at 600 nm)/Absorbance of the control well at 570 nm−Absorbance of only culture medium wells at 570 nm-Absorbance of the control well at 600 nm+Absorbance nm of only culture medium wells at 600 nm)]×100.

A549 = assay: Cytotoxicity screening, PrestoBlue cell viability; format: cell-based, human; details: A549, lung cancer cells
Procedure: as §2, with “A549,” for “BxPC-3,”, “non-small cell lung cancer” for “pancreatic adenocarcinoma”, “F12K” for “RPMI 1640”
as §3

[1] = Water solubility test (HPLC); format: physicochemical; details: double distilled water, thermodynamic from solid
Procedure: 5 mg of the standard test compound was weighed and dissolved in 5 mL of IPA as a stock solution (1 mg/mL). Double distilled water was then diluted to prepare 1000, 100, 50, 25, 12.5, 10, 5, 2.5, 1.25, 1, 0.5, 0.25, 0.125 μg/mL standard solution calibration lines. 60 μL of each concentration standard solution was used for HPLC analysis. Peak areas were integrated to establish a calibration line, and the accuracy of the analysis method was evaluated through the correlation coefficient (R-squared).
1 mL of double distilled water was weighed into a microcentrifuge tube and the test compound was dissolved. Undissolved compounds were ensured to be still present by vortexing for 5 min and sonicating for 20 min. After centrifugation, the supernatant was filtered through a 0.22 μm PTEF membrane. The […] was analyzed by HPLC and the water solubility was calculated from the peak area.

MCF-7 = assay: Cytotoxicity screening, PrestoBlue cell viability; format: cell-based, human; details: MCF-7, breast cancer cells
Procedure: MCF7, human breast cancer, was obtained from the Bioresource Collection and Research Center (BCRC, Taiwan, China). Cells were cultured in minimal essential Eagle's culture medium (FBS) (Gibco, USA) containing 2 mM L-glutamic acid, 1.5 mg/mL sodium bicarbonate, 0.1 mM non-essential amino acids, 1.0 mM sodium pyruvate (Gibco, USA), 10% fetal bovine serum (Gibco, USA) and 1% antibiotics (1×penicillin, streptomycin and glutamic acid) (Gibco, USA).
as §1

[2] = system: normal cells or cancer cells; assay: Cytotoxicity tests in various cell lines (summary); format: cell-based; details: normal cells and cancer cells, various cell lines (Table 3)
Procedure: (§4) Cell viability was assessed with PrestoBlue assay (Invitrogen, USA). Cells were seeded into 96-well plates and cultured with test compounds according to the manufacturer's protocol. After 48 hours of exposure to test compounds, the culture medium was discarded and rinsed with PBS. Then, add 10 μL PrestoBlue reagent containing 90 μL culture medium to the cells and incubate the cell plate at 37° C. in the dark for 120 min. Absorbance was measured at the experimental wavelength of 570 nm and the normalized wavelength of 600 nm in a SpectraMax iD3 microplate reader. The result was corrected by subtracting the blank value. Cell viability was expressed as a percentage relative to the control, and calculated using the following formula: cell viability (%)=[(Absorbance of test wells at 570 nm−Absorbance of only culture medium wells at 570 nm−Absorbance of test wells at 600 nm+Absorbance of only culture medium wells at 600 nm)/Absorbance of the control well at 570 nm−Absorbance of only culture medium wells at 570 nm-Absorbance of the control well at 600 nm+Absorbance nm of only culture medium wells at 600 nm)]×100.
Taking the linker of the present invention (n=2; X, Y, Z=O; R^1, R^2, R^4=H; R^3=CH3) as an example, the linker has significant advantages in terms of synthetic elastic properties. […]

AsPC-1 = assay: Cytotoxicity screening, PrestoBlue cell viability; format: cell-based, human; details: AsPC-1, pancreatic cancer cells
Procedure: as §2, with “AsPC-1,” for “BxPC-3,”, “adenocarcinoma ascites metastatic” for “adenocarcinoma”
as §3

HuH28 cells = assay: Cytotoxicity screening, PrestoBlue cell viability; format: cell-based, human; details: HuH28, 20 μg/mL
Procedure: (§5) HuH28 cells, human liver, and cholangiocarcinoma cells, were obtained from the Japanese Collection of Research Bioresources Cell Bank (JCRB, Japan). Cells were cultured in 90% RPMI 1640 culture medium (Gibco, USA), 10% fetal bovine serum (FBS) (Gibco, USA), and 1% antibiotics (1×penicillin, streptomycin and glutamine) (Gibco, USA).
as §3

NOZ cells = assay: Cytotoxicity screening, PrestoBlue cell viability; format: cell-based, human; details: gallbladder cancer cells
Procedure: as §5, with “NOZ” for “HuH28”, “gallbladder cancer” for “liver, and cholangiocarcinoma”, “William's E” for “RPMI 1640”
as §3

HCT-15 = assay: Cytotoxicity screening, PrestoBlue cell viability; format: cell-based; details: HCT-15, colon cancer cells
Procedure: as §2, with “HCT-15, colorectal adenocarcinoma, was” for “BxPC-3, human pancreatic adenocarcinoma cells, were”, “fetal bovine serum (FBS)” for “FBS”
as §3

PANC-1 = assay: Cytotoxicity screening, PrestoBlue cell viability; format: cell-based, human; details: PANC-1, pancreatic cancer cells
Procedure: PANC-1, human pancreatic epithelioid carcinoma, was obtained from the American Type Culture Collection (ATCC, USA). Cells were cultured in DMEM culture medium (Gibco, USA) containing 10% FBS (Gibco, USA) and 1% antibiotics (1×penicillin, streptomycin and glutamic acid) (Gibco, USA).
as §4

HuCCT1 cells = assay: Cytotoxicity screening, PrestoBlue cell viability; format: cell-based, human; details: HuCCT1, 20 μg/mL
Procedure: HuCCT1 cells, human cholangiocarcinoma cells, were obtained from iCell Bioscience Inc. (iCell, China). Cells were cultured in 90% RPMI 1640 culture medium (Gibco, USA), 10% fetal bovine serum (FBS) (Gibco, USA), and 1% antibiotics (1×penicillin, streptomycin and glutamine) (Gibco, USA).
as §3

AML12 cells = assay: Cytotoxicity screening, PrestoBlue cell viability; format: cell-based, mouse; details: AML12, normal hepatocytes
Procedure: AML12 cells, alpha mouse liver 12, were obtained from the American Type Culture Collection (ATCC, USA). Cells were cultured in DMEM: F12 culture medium (Gibco, USA), 10% fetal bovine serum (FBS) (Gibco, USA), 10 μg/mL insulin, 5.5 μg/mL transferrin, 5 ng/ml selenium, 40 ng/ml dexamethasone (Gibco, USA), and 1% antibiotics (1×penicillin, streptomycin and glutamic acid) (Gibco, USA).
as §1

Vero E6 cells = assay: Cytotoxicity screening, PrestoBlue cell viability; format: cell-based, cercopithecus aethiops; details: Vero E6, normal kidney cells
Procedure: Vero E6 cells, cercopithecus aethiops renal epithelial cells, were obtained from the American Type Culture Collection (ATCC, USA). Cells were cultured in Dulbecco's Modified Eagle Medium (DMEM) (Gibco, USA) containing 10% FBS (Gibco, USA), 100 U/mL penicillin, and 100 μg/mL streptomycin (Gibco, USA). Cell viability was assessed with PrestoBlue assay (Invitrogen, USA). Cells were seeded into 96-well plates and cultured with test compounds according to the manufacturer's protocol. After 48 hours of exposure to test compounds, the culture medium was discarded and rinsed with PBS. Then, add 10 μL PrestoBlue reagent containing 90 μL culture medium to the cells and incubate the cell plate at 37° C. in the dark for 120 min. Absorbance was measured at the experimental wavelength of 570 nm and the normalized wavelength of 600 nm in a SpectraMax iD3 microplate reader. […] Cell viability was expressed as a percentage relative to the control, and calculated using the following formula: cell viability (%)=[(Absorbance of test wells at 570 nm−Absorbance of only culture medium wells at 570 nm−Absorbance of test wells at 600 nm+Absorbance of only culture medium wells at 600 nm)/Absorbance of the control well at 570 nm−Absorbance of only culture medium wells at 570 nm-Absorbance of the control well at 600 nm+Absorbance nm of only culture medium wells at 600 nm)]×100.

Row | solubility [1] [µg/mL] | Compound | 20 μg/mL 48-hour survival rate (Caco-2) [%] | 20 μg/mL 48-hour survival rate (BxPC-3) [%] | 20 μg/mL 48-hour survival rate (A549) [%] | 20 μg/mL 48-hour survival rate (MCF-7) [%] | cytotoxicity [2] | 20 μg/mL 48-hour survival rate (AsPC-1) [%] | 20 μg/mL 48-hour survival rate (HuH28 cells) [%] | 20 μg/mL 48-hour survival rate (NOZ cells) [%] | 20 μg/mL 48-hour survival rate (HCT-15) [%] | 20 μg/mL 48-hour survival rate (PANC-1) [%] | 20 μg/mL 48-hour survival rate (HuCCT1 cells) [%] | 20 μg/mL 48-hour survival rate (AML12 cells) [%] | 20 μg/mL 48-hour survival rate (Vero E6 cells) [%]
1 | 780 (≈ 2890 µM) | C/C(=C\CO)CC/C=C(\C)CCC(O)C(C)C(=O)O (stereo not drawn) [Linker of the present invention, (6E,10E)-3,12-dihydroxy-2,6,10-trimethyldodec-6,10-dienoic acid] | 99.94 ± 3.16 | 91.33 ± 5.93 | 82.28 ± 5.53 | 89.45 ± 8.95 | not cytotoxic | 93.02 ± 5.01 | 87.92 ± 5.14 | 107.26 ± 14.11 | 88.96 ± 15.45 | 106.67 ± 8.24 | 110.04 ± 0.17 | 91.99 ± 2.6 | 96.28 ± 3.66
2 | 87.4 (≈ 393 µM) | CC(C)=CCC/C(C)=C/CC/C(C)=C/CO [Farnesol, reference compound] |  |  |  |  |  |  |  |  |  |  |  |  | 
